Peptide text beside a SMILES is read from it.
Assay: Alamethicin channel currents across PTFE-supported bilayer lipid membrane
Type: biochemical
Conditions: alamethicin 100 ng/ml on both sides of PTFE support matrix
Procedure: Alamethicin is a peptide that spontaneously inserts itself into a bilayer lipid membrane. Molecules of alamethicin can diffuse within the plane of the membrane and may associate with other alamethicin molecules to form a channel for the passage of small ions when a voltage is applied across a bilayer lipid membrane.
Given the above, alamethicin was used as an indicator of bilayer lipid membrane formation success.
In this example, alamethicin is dissolved in 100% ethanol (5 μg/ml) and stored at 4° C. After the bilayer lipid membrane is formed, alamethicin is added to solutions on both sides of the PTFE support matrix 11 to a final concentration of 100 ng/ml. Electrochemical measurements were then carried out using a two electrode system. Silver/silver chloride wires were used as the working and reference electrodes and based on measurements taken, channels were observed after 10 minutes.
The nature of the electrical current caused by the flow of ions is understood to be dependent on: • 1. The concentration of ions bathing the bilayer lipid membrane, • 2. The voltage applied and, • 3. The concentration of alamethicin.

## CC(=O)NC(C)(C)C(=O)N1CCC[C@H]1C(=O)NC(C)(C)C(=O)N[C@@H](C)C(=O)NC(C)(C)C(=O)N[C@@H](C)C(=O)N[C@@H](CCC(N)=O)C(=O)NC(C)(C)C(=O)N[C@H](C(=O)NC(C)(C)C(=O)NCC(=O)N[C@@H](CC(C)C)C(=O)NC(C)(C)C(=O)N1CCC[C@H]1C(=O)N[C@H](C(=O)NC(C)(C)C(=O)NC(C)(C)C(=O)N[C@@H](CCC(=O)O)C(=O)N[C@@H](CCC(N)=O)C(=O)N[C@H](CO)Cc1ccccc1)C(C)C)C(C)C [alamethicin] (HELM PEPTIDE1{[ac].[Aib].P.[Aib].A.[Aib].A.Q.[Aib].V.[Aib].G.L.[Aib].P.V.[Aib].[Aib].E.Q.[OC[C@H](Cc1ccccc1)N[*:1]]}$$$$V2.0)
  time after which channels were observed: 10 min

Source: patent publication US20080318326A1 (priority 2005, published 2008)
